Data as given in article PMC10788856, “Mimicking Nonribosomal Peptides from the Marine Actinomycete Streptomyces sp. H-KF8 Leads to Antimicrobial Peptides” (ACS Infectious Diseases, 2023).
Numbered stars: 1 amine (or outer) side, 2 acyl side, 3 side chain; on linkers, the order of the positions; unused ones are H or OH. Bridge positions count the residues as written; N and C are the ends. Square brackets hold non-standard residues; d marks the D form. Peptide text beside a SMILES is read from it. Tyr(3-NO2) = N[C@@H](Cc1ccc(O)c([N+](=O)[O-])c1)C(=O)O; Glutaryl = O=C(CCCC(=O)[*:2])[*:1]; Orn = NCCC[C@H](N)C(=O)O

System: human embryonic kidney (HEK) cells
Format: cell-based
Procedure: To confirm the peptide selectivity toward bacteria cells, cytotoxicity assays of synthesized peptides L2, L3, L3-K, and C3 against human embryonic kidney (HEK) and hepatoblastoma (HepG2) were performed (Figure 4). The cell viability was assessed using resazurin 24 h post peptide exposure. The line at 70% cell viability marks out the threshold for cytotoxic potential compared to the negative control.
Figure 4 Cell viability assessment using the resazurin assay 24 h post peptide exposure: (a) HepG2 and (b) HEK cells were treated with various concentrations of the peptides C3, L3, L3-K, and L2. Triton-X was used as a positive control. Cells cultured in pure cell media were used as negative controls and were considered to have 100% cell viability. The line represents the threshold for cytotoxicity level of 70% of cell viability compared to the negative control. Data are presented as the mean ± SD of three biological replicates of the HepG2 cells and the mean ± SD of two biological replicates of the HEK cells.
Cytotoxicity against human embryonic kidney (HEK) and hepatoblastoma (HepG2) cell lines was assessed. Cells were grown to an initial seeding density of 10 000 cells per well. Metabolic activity was determined in a resazurin-based assay. HEK and HepG2 cells were exposed to four different concentrations of the peptides for 24 h. Treatment with Triton X-100 at 1% v/v was used as a positive control. Following this exposure period, the cells were treated with resazurin at a final concentration of 0.015 mg/mL for 3 h. The metabolic activity was then determined in an resazurin-based assay. The fluorescence intensities were quantified in a Hidex Sense microplate reader using an excitation wavelength of 544 nm and an emission wavelength of 590 nm.

CC(C)[C@H]1NC(=O)[C@H](CCCN)NC(=O)[C@H]([C@@H](C)O)NC(=O)[C@H](CCCN)NC(=O)[C@H](Cc2c[nH]c3ccccc23)NC(=O)[C@@H](C)NC(=O)[C@@H](C(C)C)NC(=O)[C@@H](C)NC(=O)[C@H](Cc2c[nH]c3ccccc23)NC(=O)CCCC(=O)NCCCC[C@@H](C(N)=O)NC(=O)[C@H](Cc2ccc(O)c([N+](=O)[O-])c2)NC1=O [C3] (W[dA][dV][dA]W[Orn]T[Orn][dV][Tyr(3-NO2)]K-NH2; linker N-11 via Glutaryl)
cytotoxicity, cell viability HEK: at the highest tested concentration seems to have cytotoxic properties
